Laboratory results: publication PMC6149971, “In Vivo and In Vitro Activities and ADME-Tox Profile of a Quinolizidine-Modified 4-Aminoquinoline: A Potent Anti-P. falciparum and Anti-P. vivax Blood-Stage Antimalarial” (Molecules : A Journal of Synthetic Chemistry and Natural …, 2017)
“And” between values parts separate entries of the source, which are not always exact repeats. Identical values can stand only once.

Experiments:
[1] = Microsome stability and metabolism studies, mouse; assay type: in vitro ADME; set-up: key: +: Metabolic Products Detected In Vitro and In Vivo; ND: Not detectable; details: (−)-AM1 1 μM, at 30 min
Method: Samples from the metabolic stability and metabolism studies were analyzed under the following conditions: UPLC interfaced with a Premiere XE triple Quadrupole Waters for stability studies, and Bruker Daltonics Ion Trap HCT Ultra for metabolic studies. A gradient from 2% to 100% (Water, MeOH, 5 mM Ammonium Acetate) over 2 min (stability) or 12 min (metabolism) in a C18 BEH (dimensions 1 by 50 mm for stability and 2.1 by 100 mm for metabolism, 1.7 µm column, 45 °C temperature, flow rate 0.5 mL/min) was used. For stability studies, the detection was performed in MRM (ESI positive, Q1/Q3 330.16/152.00, Cone Voltage 45 V; Extractor 5 V; Capillary 3.4 kV), while for metabolism studies, analysis was performed in Auto MS/MS mode (ESI positive; Capillary 109 V; Dry Temp 350 °C; Nebulizer 30 psi; Dry gas 10 L/min; HV capillary 500 V; Mass Accu time 500 µs; Mass range MS scan 100–600 amu, MS/MS 50–450 amu).
For stability and metabolism studies, test compounds were dissolved in DMSO, diluted at the final concentration of 1 µM, and pre-incubated in duplicate for 10 min at 37 °C in potassium phosphate buffer, pH 7.4, 3 mM MgCl2, with rat, mouse, and human hepatic microsomes (Xenotech Europe, Pfungstadt, Germany) at the final concentration of 0.5 mg/mL. The reaction was then started by adding the cofactor mixture of NADP, Glc6P, and G6P-DH, in the presence of UDPGA 1 mM in human microsomes to promote glucuronide formation. Acetonitrile (with verapamil as internal standard) was added to the samples at the times time 0 and 30 min to stop the reaction. Samples were then centrifuged and the supernatants analysed and quantified by LC-MS/MS. Reference compounds of known metabolic stability, 7-ethoxycoumarin (7-EC) and propranolol, were used as controls.
The percentage of the area of test compounds remaining after 30 min incubation was calculated in respect to the area of compounds at time = 0 min. […] Samples were re-analyzed by acquiring the daughter scan of the potential metabolites found during the full scan acquisition.

P. falciparum D10 (CQ-S) = experiment: Combination with dihydroartemisinin (isobologram), D10; assay type: cell-based; details: additive activity
Method: Figure 2 Isobologram analysis of the antimalarial activity of (−)-AM1 in combination with dihydroartemisinin (DHA) against D10 chloroquine-sensitive (CQ-S) (A) or W2 chloroquine-resistant (CQ-R) (B) P. falciparum strains. […]. DHA fractional IC50 values were calculated by dividing the IC50 of DHA combined with (−)-AM1 or CQ, respectively, by the IC50 of DHA alone, and plotted on the horizontal axis. The corresponding fractional (−)-AM1 or CQ IC50 values were calculated by dividing each fixed concentration by the IC50 of the (−)-AM1 or CQ alone, and plotted on the vertical axis. An isobologram close to the diagonal indicates an additive effect.
The antimalarial activity of (−)-AM1 was assayed in combination with dihydroartemisinin (DHA) against W-2 (CQ-R) or D10 (CQ-S) strains of P. falciparum by potentiation tests as previously described. CQ was used as a control. Isobolograms were constructed by plotting a pair of fractional IC50 values for each combination of (−)-AM1 or CQ with DHA [40].
An isobologram close to the diagonal indicates an additive effect.

[2] = Pharmacokinetics in CD-1 mice after oral administration; assay type: in vivo, mouse; details: male, CD-1, mouse, in vivo, po, 10 mg/kg
Method: Samples from the pharmacokinetic studies were analyzed under the following conditions: UPLC interfaced with a Premiere XE triple Quadrupole, Waters. A gradient from 2 to 100% (Water, MeOH, 5 mM Ammonium Acetate) over 1.3 min was used in Acquity HSS T3 (dimensions 2.1 by 50 mm, 1.8 µm column, 40 °C temperature, flow rate 0.5 mL/min). Detection was performed in MRM (ESI positive, Q1/Q3 330.16/152.00, Cone Voltage 45 V; Extractor 5 V; Capillary 3.4 kV). The limit of detection was 1 ng/mL. Pharmacokinetic parameters were determined by Non-Compartmental Analysis, using the linear trapezoidal rule and uniform weight.
Pharmacokinetic data were collected in mice by testing the racemate and the enantiomers at the same single dose, and vehicle-utilized for in vivo studies (see composition in paragraph 4.4). Briefly, male CD-1 mice (Charles River Laboratories) weighing 18–22 g received single dose (10 mg/kg) oral administrations of the AM1 racemate and single enantiomers, each dissolved in SSV. For each experiment, twenty-four mice/dose and three mice/time-point were used. Blood samples were collected at eight selected time-points (15, 30 and 60 min; 2, 4, 6, 8 and 24 h) under ethyl ether anaesthesia. The heparinized tubes containing blood samples were immediately placed on ice and centrifuged, and the supernatant collected and frozen at −80 °C prior to analysis. Pharmacokinetic plasma samples (spiked with internal standard) were filtered (Sirocco filter plate, Waters) under vacuum, and 5 µL analysed by LC-MS/MS.

[3] = test system: P. falciparum FCR3 (CQ-R); experiment: In vitro chemosensitivity assay (pLDH), FCR3 strain; assay type: cell-based; details: Plasmodium falciparum, FCR3; 72 h incubation, pLDH method, mean of 3 experiments; read-out: P. falciparum IC50, FCR3
[4] = test system: P. falciparum TM91C235 (multidrug-resistant); experiment: In vitro chemosensitivity assay (pLDH), TM91C235 strain; assay type: cell-based; details: Plasmodium falciparum; 72 h incubation, pLDH method, mean of 3 experiments; read-out: P. falciparum IC50, TM91C235
P. berghei = experiment: Prophylactic test, P. berghei/A. stephensi model; assay type: in vivo; details: 50 mg/kg per os for 4 days, infection by mosquito bites, days 5–9 post-infection
Method: (−)-AM1 was also tested in transmission-blocking and prophylactic studies using the P. berghei/A. stephensi model as described, with a few modifications.
For the prophylactic test, the experimental drugs were administered at 50 mg/kg per os for 4 consecutive days; 90 min after the last administration, mice were infected by 6–10 infective mosquito bites. Thick and thin Giemsa-stained smears were prepared and examined on days 5–10 post-infection to assess parasite density per μL of blood.

In the case of Clc1ccc2c(NC[C@@H]3CCCN4CCCC[C@H]34)ccnc2c1 [(−)-AM1, 7-chloro-N-(((1S,9aR)-octahydro-1H-quinolizin-1-yl)methyl)quinolin-4-amine], the “Metabolic products detected, in vitro microsomes, mouse” value [1] is reported as “+”, the “FIC in combination with DHA” value (P. falciparum D10 (CQ-S)) is reported as under 2 and the AUC(0-t) [2] is reported as 0.313 µM·h and 103 ng·h/mL. For the same compound, the Cmax [2] was 84 nM and 27.6 ng/mL, the MRT last [2] was 3.33 h and the Tmax [2] was 0.25 h. The IC50 [3] was 23.3 nM, the IC50 [4] was 16.7 nM and the “parasitaemia versus control mice, prophylactic activity” value (P. berghei) was “no significant differences in parasitaemia”.
